Data: article PMC7806935, “Exosite inhibition of ADAMTS-5 by a glycoconjugated arylsulfonamide” (Scientific Reports, 2021)

Tests used:
[1] = biological target: V1-5GAG, a truncated versican V1 variant (UniProt P13611)
ADAMTS-4 [2] = biological target: T1, ADAMTS-4 (Homo sapiens, UniProt O75173); test: QF peptide cleavage assay, ADAMTS-4; type: biochemical; details: 12-residue QF peptide substrate; mean ± SEM (n = 3); read-out: IC50 (μM) QF peptide ATS4
T1 construct: made in house
T1 sequence (O75173 213-837): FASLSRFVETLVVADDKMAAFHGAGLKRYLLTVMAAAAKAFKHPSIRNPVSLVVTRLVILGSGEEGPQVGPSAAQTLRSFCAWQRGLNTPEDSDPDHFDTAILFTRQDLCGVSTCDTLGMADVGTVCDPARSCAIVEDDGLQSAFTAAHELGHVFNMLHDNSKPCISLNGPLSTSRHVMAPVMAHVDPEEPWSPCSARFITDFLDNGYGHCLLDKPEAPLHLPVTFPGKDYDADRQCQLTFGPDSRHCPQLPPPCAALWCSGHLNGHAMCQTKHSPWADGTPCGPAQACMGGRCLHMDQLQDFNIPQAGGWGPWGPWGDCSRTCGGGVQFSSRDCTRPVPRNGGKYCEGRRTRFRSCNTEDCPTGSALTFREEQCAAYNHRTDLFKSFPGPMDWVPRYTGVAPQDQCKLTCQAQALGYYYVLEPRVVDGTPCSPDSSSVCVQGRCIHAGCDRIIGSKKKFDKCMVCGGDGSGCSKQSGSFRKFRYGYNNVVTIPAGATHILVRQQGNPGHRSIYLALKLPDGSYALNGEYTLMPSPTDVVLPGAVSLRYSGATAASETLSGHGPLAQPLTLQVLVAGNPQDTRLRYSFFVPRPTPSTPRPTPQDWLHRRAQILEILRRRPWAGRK
Procedure: (§1) All enzyme assays were conducted in TNC-B buffer (50 mM Tris–HCl, pH 7.5, 150 mM NaCl, 10 mM CaCl2, and 0.02% NaN3) at 37 °C. To avoid the formation of inhibitor aggregates, the detergent Brij-35 (0.05%) was added to the assay buffer. No aggregation was visually observed at concentrations up to 2 mM. The inhibitor stock solutions in DMSO (10 mM) were diluted at different concentrations in assay buffer and incubated with ADAMTS-4 or ADAMTS-5 for 2 h at 37 °C. Percent of inhibition was calculated from control reactions containing only DMSO. IC50 values were determined using the formula: vi/v0 = 1/(1 + [I]/IC50) where vi is the initial velocity of substrate cleavage in the presence of the inhibitor at concentration [I] and v0 is the initial velocity in the presence of an equal concentration (v/v) of DMSO.
(§2) QF peptide cleavage assays were conducted in 96-well black microtiter plates (Scientific Laboratories Supplies Ltd, Wilford, UK) using a Fluostar Omega microplate reader (BMG Labtech, Aylesbury, UK). The activity of ADAMTS-4 (1 nM) and -5 (5 nM) was monitored for 2 h using the fluorescent peptide substrates fluorescein 5(6)-carbonyl-Ala-Glu-Leu-[…]-Gly-Arg-Pro-Ile-Ser-Ile-Ala-Lys-N,N,N0,N0-tetramethyl-6-carboxyrhodamine-NH2 (FAM-AE ~ LQGRPISIAK-TAMRA, ADAMTS-4) and fluorescein 5(6)-carbonyl-Thr-Glu-Ser-Glu ~ Ser-Arg-Gly-Ala-Ile-Tyr-Lys-Lys-N,N,N0,N0-tetramethyl-6-carboxyrhodamine-NH2 (FAM-TESE ~ SRGAIYKK-TAMRA, ADAMTS-5) (custom-synthesized by Bachem, Bubendorf, Switzerland) with an excitation wavelength of 485 nm and an emission wavelength of 538 nm. Final substrate concentrations were 1 μM and 40 μM for ADAMTS-4 and -5, respectively. Fluorescence was expressed in relative fluorescence units (RFU) and normalized against a blank containing only buffer and substrate. Emission spectra were recorded at several concentrations of each compound to exclude auto-fluorescence and maximal inhibitor concentrations were selected accordingly.

ADAMTS-5 [3] = biological target: T2, ADAMTS-5 (Homo sapiens, UniProt Q9UNA0); test: QF peptide cleavage assay, ADAMTS-5; type: biochemical; details: 12-residue QF peptide substrate; mean ± SEM (n = 3); read-out: IC50 (μM) QF peptide ATS5
T2 construct: made in house
T2 sequence (Q9UNA0 262-930): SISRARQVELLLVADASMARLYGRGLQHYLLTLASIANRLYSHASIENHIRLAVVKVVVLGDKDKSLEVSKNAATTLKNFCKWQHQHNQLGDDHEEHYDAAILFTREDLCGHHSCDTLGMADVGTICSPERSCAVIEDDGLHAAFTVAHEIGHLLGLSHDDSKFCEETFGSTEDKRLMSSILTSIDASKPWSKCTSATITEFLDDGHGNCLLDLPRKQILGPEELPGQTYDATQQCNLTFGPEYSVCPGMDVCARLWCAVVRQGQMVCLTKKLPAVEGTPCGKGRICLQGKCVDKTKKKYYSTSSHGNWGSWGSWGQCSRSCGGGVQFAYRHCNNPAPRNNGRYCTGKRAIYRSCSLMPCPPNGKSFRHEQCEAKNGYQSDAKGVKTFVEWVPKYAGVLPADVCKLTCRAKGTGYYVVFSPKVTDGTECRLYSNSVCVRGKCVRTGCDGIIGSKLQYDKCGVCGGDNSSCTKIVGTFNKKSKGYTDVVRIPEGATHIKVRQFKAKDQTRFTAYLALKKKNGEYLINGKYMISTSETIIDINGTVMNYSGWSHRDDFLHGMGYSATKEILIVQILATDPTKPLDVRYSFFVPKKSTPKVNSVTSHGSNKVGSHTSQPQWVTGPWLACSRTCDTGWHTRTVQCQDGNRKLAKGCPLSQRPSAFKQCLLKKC
Procedure: as §1, §2

ADAMTS-5 [4] = biological target: T2, ADAMTS-5; test: Versican digestion assay (V1-5GAG, sandwich ELISA), ADAMTS-5; type: biochemical; details: for IC50: protein substrate V1-5GAG, mean ± SEM (n = 3)
Procedure: as §1
(§3) ADAMTS-5 full-length (FL) (final concentration 0.4 nM), ADAMTS-5 MDTCS (0.4 nM) ADAMTS-5 MD (26 nM) or ADAMTS-4 (5.5 nM) were incubated with different concentrations of inhibitors or DMSO for 2 h at 37 °C in TNC-B buffer before addition of V1-5GAG (50 nM). At different time points (0–20 min), sub-samples were removed and reactions were stopped with EDTA. Maxisorp plates (VWR, Lutterworth, UK) were coated with 5 μg/mL anti-DPEEAE neoepitope antibody (Cat n. PA1-1748A, Life Technologies, Paisley, UK) in carbonate buffer pH 9.6 (16 h, 4 °C). This neoepitope antibody specifically recognizes the N-terminal versican fragment versikine, generated when ADAMTS-5 cleaves versican at the Glu441↓442Ala bond. Washing steps were performed in triplicate with 300 μL phosphate buffered-saline (PBS) containing 0.1% Tween-20 between each step. Plates were blocked with 3% bovine serum albumin (BSA)/PBS for 2 h, at RT. The samples from the digestion experiments were diluted in 3% BSA/PBS and added to the plate (100 μL, 2 h, RT). Bound versikine fragments were detected using anti-G1 monoclonal antibody (Cat n. ab171887, Abcam, Cambridge, UK) (3 μg/mL in 0.5% BSA/PBS, 1.5 h, RT), followed by horseradish peroxidase (HRP)-conjugated anti-mouse antibodies (Cat. N. P044701-2, Agilent Technologies LTD, Cheadle, UK) (2.4 μg/mL, 1 h, RT). The assay was developed by addition of o-phenylenediamine dihydrochloride (OPD, Cat n. 34006, Sigma Aldrich, Gillingham, UK) for 10 min and reactions were stopped with 2 M H2SO4. The absorbance was measured at 492 nm using a BioTeK Epoch (BioTek, Swindon, UK) plate reader. For each dilution, the amount of neoepitope generated was derived from a standard curve (0–1.56 nM) of V1-5GAG completely digested with ADAMTS-5. Initial velocities were calculated from the concentration of versikine generated as a function of reaction time and IC50 values were determined.
(§4) For inhibition studies, initial rates of proteolysis (< 20% cleavage) were analyzed between 0 and 20 min. For determination of the specificity constants (kcat/Km), digestion reactions were allowed to occur to completion (0–2 h). Data were analyzed as previously described.

ADAMTS-4 [5] = biological target: T1, ADAMTS-4; test: Versican digestion assay (V1-5GAG, sandwich ELISA), ADAMTS-4; type: biochemical; details: protein substrate V1-5GAG, mean ± SEM (n = 3)
Procedure: as §1, §3, §4

[6] = read-out: IC50 (μM) V1-5GAG ATS5
[7] = read-out: IC50 (μM) V1-5GAG ATS4

Row | Molecule | kcat/Km for proteolysis of V1-5GAG (time course at 50 nM substrate, versikine by sandwich ELISA) [1] [M⁻¹ s⁻¹] | IC50 (ADAMTS-5 [4]; read-out: IC50 (μM) ADAMTS-5) [µM] | IC50 (ADAMTS-4 [5]; read-out: IC50 (μM) ADAMTS-4) [µM] | other results
1 | ADAMTS-5 MDTCS K533A (enzyme) | 1.25e+06 |  |  | 
2 | CCC(C)N(Cc1cn(CCCOC2OC(CO)C(O)C(O)C2NC(C)=O)nn1)S(=O)(=O)c1ccc(OCc2ccccc2)cc1 (mixture of isomers) [Compound 4d] |  |  |  | IC50 (ADAMTS-4 [2]): > 50 µM; IC50 (ADAMTS-5 [3]): > 50 µM; IC50 (ADAMTS-5 [4]; [6]): 90 ± 23 µM; IC50 (ADAMTS-4 [5]; [7]): 180 ± 50 µM
3 | CC(=O)N[C@@H]1[C@@H](O)[C@H](O)[C@@H](CO)O[C@H]1n1cc(CN([C@@H](C(=O)OCc2ccccc2)C(C)C)S(=O)(=O)c2ccc(-c3ccccc3)cc2)nn1 [Compound 3a] |  | > 50 | > 50 | 
4 | ADAMTS-5 MDTCS K532A/K533A (enzyme) | 675000 |  |  | 
5 | CCC(C)N(Cc1cn(CCCOC2OC(CO)C(O)C(O)C2NC(C)=O)nn1)S(=O)(=O)c1ccc(OCc2ccc(F)cc2Cl)cc1 (mixture of isomers) [Compound 4c] |  |  |  | IC50 (ADAMTS-4 [2]): > 50 µM; IC50 (ADAMTS-5 [3]): 57 ± 10 µM; reduction in inhibitory properties (ADAMTS-5 [4]; benzyloxyphenyl compound compared to 4b): 6 fold; IC50 (ADAMTS-5 [4]; [6]): 62 ± 12 µM; IC50 (ADAMTS-4 [5]; [7]): 90 ± 44 µM
6 | CCC(C)N(Cc1cn(C2OC(CO)C(O)C(O)C2NC(C)=O)nn1)S(=O)(=O)c1ccc(-c2ccccc2)cc1 (mixture of isomers) [Compound 3b] |  | 120 ± 20 | 50 ± 16 | reduction in inhibition of ADAMTS-5 versicanase activity (ADAMTS-5 [4]; sugar directly linked to the sulfonamide scaffold, compared with n-propyloxy link): ~ 13 fold

The next lines start with results.

Row | kcat/Km for proteolysis of V1-5GAG (time course at 50 nM substrate, versikine by sandwich ELISA) [1] [M⁻¹ s⁻¹] | IC50 (ADAMTS-5 [4]; read-out: IC50 (μM) ADAMTS-5) [µM] | IC50 (ADAMTS-4 [5]; read-out: IC50 (μM) ADAMTS-4) [µM] | Molecule | other results
7 | 1.56e+06 |  |  | ADAMTS-5 MDTCS K533H (enzyme) | 
8 | 3.23e+06 |  |  | ADAMTS-5 MDTCS (lacking the C-terminal TS motif) (enzyme) | 
9 | 401000 |  |  | ADAMTS-5 MDTCS K532Q/K533Q (enzyme) | 
10 |  | > 50 | > 50 | CC(=O)N[C@H]1[C@H](OCCCn2cc(CN([C@@H](C(=O)OCc3ccccc3)C(C)C)S(=O)(=O)c3ccc(-c4ccccc4)cc3)nn2)O[C@H](CO)[C@@H](O)[C@@H]1O [Compound 4a] | 
